Patent US12636260B2, “Application of α-asarone in preparation of medicine for preventing or treating hemorrhagic stroke” (CHENGDU XINRUI TAIKANG TECHNOLOGY CO., LTD., priority 2021, dated 2026)

Legend:
Assay type in all cases: in vivo, rat
[1] = test system: SAH rats; assay: Morris water maze and brain tissue atrophy of SAH rats in recovery phase
Experimental: Morris water maze was used to evaluate the long-term spatial perception and memory ability of rats in each group, and was performed after the survival observation, i.e., 15 to 19 days after SAH. The water maze was a circular pool with a diameter of 150 cm and a depth of 60 cm. Before the experiment, warm water (24±2)° C. was filled to a depth of 30 cm and colored black with ink. The pool was equally divided into four quadrants, and different signs were pasted on the walls of different quadrants to indicate the difference. A transparent platform with a diameter of 10 cm and a height of 28 cm was placed in the center of one quadrant, and was 2 cm beneath the water. Rats were released from the designated quadrant according to the experimental guidelines. On day 1 to 4, rats were successively released into water from four corresponding quadrants with a 10-minute interval. If the rat found the platform within 60 seconds, it was allowed to remain there for 10 seconds; if not, it was guided to the platform with a rod and allowed to stand there for 10 seconds. On day 5, the platform was removed and the rats were allowed to swim freely for 60 seconds. The escape latency, swimming speed and dwelling time on the target quadrant were recorded using a computerized tracking system (Noldus Ethovision, Tacoma, WA, USA).

[2] = test system: SAH rats; assay: Ca2+ level and mitochondrial membrane potential in brain tissue, SAH rats; conditions: 12-24 hours after operation, group M
Experimental: (§1) The rats were decapitated to collect the brain 12 to 24 hours after modeling. The brain cortex around the hematoma was immediately taken to prepare a single cell suspension by enzymatic digestion (papain: 2 mg/mL; DNAase I: 0.05 mg/mL), with the cell concentration was adjusted to 5×10^6 cells/mL. 100 μL of cell suspension was incubated with 5 μM Fluo-3/AM dye solution or 10 μM Rhodamine 123 dye solution at 37° C. for 45 min. Then the cells were washed twice with PBS (phosphate buffer, pH=7.2-7.4), resuspended with 0.5 mL of PBS, and detected by a flow cytometry at the excitation wavelength of 506 nm and the emission wavelength of 526 nm. The mean fluorescence intensity of Fluo-3 and Rh123 in 10,000 cells was analyzed by FlowJo software.

[3] = test system: ICH rats; assay: Short-term neurological function of ICH rats (Garcia score, beam balance test); conditions: ICH model, 24 hours after modeling; group O, α-asarone emulsion oral administration 40 mg/kg
[4] = test system: ICH rats; assay: Brain water content and blood-brain barrier permeability (Evans blue), ICH rats; conditions: 24 hours after operation, group M, medium-dose intravenous, vs model group
Experimental: After completing the evaluation of 24-hour short-term neurological function, 4% Evans blue solution (2.5 mL/kg) was injected into the right caudal vein of the rats. After circulated for 1 hour, the rats were deeply anesthetized and transcardinally perfused with 100 mL of normal saline to collect the rats' brain. The whole brain was divided into four groups: left hemisphere (LH), right hemisphere (RH), cerebellum (Cb) and brainstem (BS). The left and right hemispheres were coronally divided into two parts, one part was immediately weighed (wet weight) with a balance with an accuracy of 0.1 mg, dried in an oven at 105° C. for 24 hours and weighed again (dry weight). The brain water content was calculated as [(wet weight−dry weight)/wet weight]×100%. The other part of the brain tissue was weighed (wet weight) and emerged into 10 times the volume of pure formamide, incubated at 60° C. for 48 hours, centrifuged at 25° C. for 30 min (10,000 rpm/min). The Evans blue in the supernatant was measured at 622 nm by a UV spectrophotometry, and calculated with a standard curve for quantification. The amount of Evans blue was expressed as μg/g of brain tissue (wet weight).

[5] = test system: SAH rats; assay: Short-term neurological function of SAH rats (Garcia score, beam balance test, bleeding score); conditions: SAH model, 24 hours after modeling; group O, α-asarone emulsion oral administration 40 mg/kg
[6] = test system: ICH rats; assay: Ca2+ level and mitochondrial membrane potential in brain tissue, ICH rats; conditions: 12-24 hours after operation, group M
Experimental: as §1

[7] = test system: SAH rats; assay: Glutamate and GABA content in brain tissue, SAH rats; conditions: 12 to 24 hours after operation, group M
Experimental: The rats were deeply anesthetized, and decapitated to collect the brain at 12-24 hours after modeling. Then about 60 to 120 mg of brain cortex on the hemorrhagic side were weighed, homogenized with 10 times the volume of ice-cold centrifuge buffer for biochemical detection, homogenized for 10 min in an ice bath, and centrifuged at 4° C. for 30 minutes (14,000 rpm/min). The contents of glutamate and GABA in the supernatant were detected according to the instructions of glutamate content detection kit and rat GABA Elisa kit.

C/C=C/c1cc(OC)c(OC)cc1OC [α-asarone, trans-2,4,5-trimethoxy-1-propenylbenzene]
escape latency during the training period ([1]; Morris water maze, 15 to 19 days after SAH, group M, vs group S): significantly decreased | swimming speed ([1]; Morris water maze, group M vs group S (P<0.05)): significantly faster | time in the target quadrant, spatial probe test ([1]; Morris water maze, group M, vs group S): notably prolonged | brain atrophy ([1]; SAH rats after long-term administration, group M): significantly rescued | calcium level in brain tissue ([2]; Fluo-3 flow cytometry): significantly reduce | mitochondrial membrane potential in brain tissue ([2]; Rhodamine 123 flow cytometry): stabilize | Beam balance score [3]: 3.41 | Garcia score [3]: 10.17 | Evans blue content [4]: significantly reduce | brain water content [4]: significantly reduce | Beam balance score [5]: 3.30 | Garcia score [5]: 10.94 | calcium level in brain tissue ([6]; Fluo-3 flow cytometry): significantly reduce | mitochondrial membrane potential in brain tissue ([6]; Rhodamine 123 flow cytometry): stabilize | GABA content in the hemorrhagic brain tissue [7]: significantly reduce | glutamate content in the hemorrhagic brain tissue [7]: significantly reduce
